Some test systems named below: IGROV1 ovarian; RXF 393 renal; NCI-H226 lung; NCI-H23 lung; UO-31 renal; SK-MEL-28 melanoma; OVCAR-8 ovarian; HCC-2998 colon; HOP-92 NSCLC; RPMI-8226 leukemia.
Assay in all cases: NCI anticancer screen, dose series, 48 h

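Dose response: 5 concentrations. Exposure: 48 h. Format: 96-well plates. Endpoint: linear interpolation; highest concentration if not reached. GI50: concentration for 50% inhibition of growth. TGI: total growth inhibition.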

On to `CCCCCCCCCCCCC(Br)C(=O)NCC(N)=O` (configuration not stated), for which the TGI turned out to be 29.8 µM in the assay with IGROV1 ovarian; 8.52 µM in the assay on RXF 393 renal; 8.79 µM with NCI-H226 lung; 14.7 µM in the assay on NCI-H23 lung; 6.92 µM in the assay with UO-31 renal; 29.2 µM with SK-MEL-28 melanoma. Also, the TGI was found to be 33.6 µM with OVCAR-8 ovarian, 31 µM in the assay on HCC-2998 colon and 18.9 µM with HOP-92 NSCLC.
For the molecule `COCCNC(=O)C1C(=O)C(=O)N(CCOC)C1=O` (configuration not stated), the TGI in the assay on IGROV1 ovarian, with RXF 393 renal, in the assay on NCI-H226 lung, in the assay on NCI-H23 lung, in the assay on UO-31 renal and in the assay on SK-MEL-28 melanoma was above 100 µM each time. Besides, the TGI in the assay on OVCAR-8 ovarian, with HCC-2998 colon and in the assay with HOP-92 NSCLC was above 100 µM each time.
`CCCCC1(C)C=C/C(=C2/C(=O)O/C(=C\C(=O)O)C2=O)O1` (configuration not stated): the TGI with IGROV1 ovarian, in the assay on NCI-H226 lung, with NCI-H23 lung, with UO-31 renal, in the assay on SK-MEL-28 melanoma and in the assay on OVCAR-8 ovarian was above 100 µM in each case. This molecule had a TGI with RPMI-8226 leukemia above 100 µM.
Consider `CCc1cccc(C)c1NC(=O)c1sc2nc3c(cc2c1N)C(=O)CCC3`, for which the GI50 was 4.75 µM in the assay on IGROV1 ovarian; 13 µM in the assay on NCI-H226 lung; 0.732 µM in the assay on NCI-H23 lung; 2.25 µM in the assay on UO-31 renal; 1.09 µM in the assay with SK-MEL-28 melanoma; 2.21 µM with OVCAR-8 ovarian. The GI50 in the assay with HCC-2998 colon is 1.75 µM; in the assay with RPMI-8226 leukemia, 1.06 µM; in the assay on HOP-92 NSCLC it was 0.644 µM. Further, the TGI with IGROV1 ovarian is above 100 µM; in the assay on NCI-H226 lung, above 100 µM; in the assay on NCI-H23 lung, above 100 µM; in the assay on UO-31 renal, 99.8 µM; with SK-MEL-28 melanoma it was above 100 µM; in the assay on OVCAR-8 ovarian it was above 91.7 µM. The TGI in the assay with HCC-2998 colon is above 100 µM; with RPMI-8226 leukemia it was above 24 µM; in the assay on HOP-92 NSCLC, 74.7 µM.
For the molecule `COc1ccc(N(CC(=O)NCCC[Te]c2ccccc2)C(=O)CNC(=O)OC(C)(C)C)cc1`, the GI50 in the assay on IGROV1 ovarian is 2.24 µM; in the assay with NCI-H226 lung, 2.29 µM; in the assay with NCI-H23 lung it was 2.5 µM; in the assay with UO-31 renal, 2.38 µM; with SK-MEL-28 melanoma, 3.07 µM; with OVCAR-8 ovarian, 2.41 µM. The GI50 was 2.6 µM in the assay on HCC-2998 colon, 2.4 µM with RPMI-8226 leukemia and 2.36 µM in the assay on HOP-92 NSCLC. Besides, the TGI worked out at 5.42 µM in the assay on IGROV1 ovarian; 5.36 µM in the assay on NCI-H226 lung; 6.61 µM in the assay on NCI-H23 lung; 9.04 µM in the assay with UO-31 renal; 10.1 µM with SK-MEL-28 melanoma; 6.92 µM in the assay with OVCAR-8 ovarian. The TGI was determined as 6.6 µM in the assay with HCC-2998 colon, 7.3 µM in the assay with RPMI-8226 leukemia and 4.94 µM in the assay on HOP-92 NSCLC.
For the molecule `O=S(=O)(/C=C/C(=C/c1ccccc1)S(=O)(=O)c1ccccc1)c1ccccc1`, the TGI in the assay on IGROV1 ovarian was found to be 25 µM; in the assay on RXF 393 renal, 3.19 µM; in the assay on NCI-H23 lung, 3.56 µM; in the assay with UO-31 renal, 3.22 µM; in the assay on SK-MEL-28 melanoma, 2.8 µM; in the assay on OVCAR-8 ovarian, 3.08 µM. For the same molecule, the TGI was 3.45 µM in the assay on HCC-2998 colon and 3.4 µM in the assay on RPMI-8226 leukemia.
For `COc1cc2c(cc1OC)-c1ncc3c(OC)c(OC)c(OC)cc3c1C2`, the GI50 in the assay with UO-31 renal was 3.41 µM; in the assay with SK-MEL-28 melanoma, above 100 µM; in the assay with OVCAR-8 ovarian, 16.3 µM; in the assay with HCC-2998 colon, 47.7 µM; in the assay on RPMI-8226 leukemia, 2.5 µM; in the assay with HOP-92 NSCLC, 58.5 µM. Also, the TGI in the assay on UO-31 renal was 15.7 µM; in the assay on SK-MEL-28 melanoma, above 100 µM; with OVCAR-8 ovarian it was 38.5 µM; in the assay on HCC-2998 colon it was above 100 µM; with RPMI-8226 leukemia, 32.3 µM; in the assay on HOP-92 NSCLC, above 100 µM.
On to `O=C(Nc1cccc(-n2cc(-c3ccncc3)c(-c3cc(O)cc(Cl)c3)n2)c1)c1cc(C(F)(F)F)cc(C(F)(F)F)c1`, for which the GI50 is 7.96 µM in the assay on IGROV1 ovarian; 1.69 µM in the assay with RXF 393 renal; 16.1 µM with NCI-H226 lung; 4.16 µM with NCI-H23 lung; 2.5 µM in the assay on UO-31 renal; 4.71 µM in the assay on SK-MEL-28 melanoma. Moreover, the GI50 in the assay with OVCAR-8 ovarian is 3.58 µM; in the assay on HCC-2998 colon it was 3.12 µM; in the assay on RPMI-8226 leukemia, 2.5 µM. Moreover, the TGI is above 100 µM in the assay with IGROV1 ovarian; 4.35 µM in the assay on RXF 393 renal; above 100 µM with NCI-H226 lung; 46.5 µM in the assay on NCI-H23 lung; above 100 µM in the assay on UO-31 renal; 85.3 µM in the assay on SK-MEL-28 melanoma. The values for the TGI with OVCAR-8 ovarian, with HCC-2998 colon and with RPMI-8226 leukemia were above 100 µM, 11.6 µM and 12.7 µM, respectively.
With `CC(C)=CC(=O)N(C)C1C2CN3CCC(O2)C13` (configuration not stated), the TGI in the assay with IGROV1 ovarian, in the assay with RXF 393 renal, in the assay on NCI-H226 lung, in the assay on NCI-H23 lung, in the assay on UO-31 renal and in the assay on SK-MEL-28 melanoma was above 100 µM each time. Moreover, the TGI in the assay with OVCAR-8 ovarian and with HCC-2998 colon was above 100 µM each time.
As for `O=C(c1nc2ccccc2[nH]c1=O)C(O)c1ccccc1` (configuration not stated), the TGI in the assay with IGROV1 ovarian, in the assay with NCI-H226 lung, with NCI-H23 lung, in the assay with UO-31 renal, with SK-MEL-28 melanoma and in the assay on OVCAR-8 ovarian was above 100 µM each time. Further, the TGI in the assay on HCC-2998 colon, in the assay on RPMI-8226 leukemia and in the assay on HOP-92 NSCLC was above 100 µM in each case.
Turning to `N#CC(c1ccccn1)c1nc2ccccc2[nH]1` (configuration not stated), the TGI in the assay on NCI-H226 lung, in the assay on NCI-H23 lung, in the assay with UO-31 renal, in the assay with SK-MEL-28 melanoma, with OVCAR-8 ovarian and in the assay on HCC-2998 colon was above 100 µM throughout. In the assay with RPMI-8226 leukemia, this molecule returned a TGI above 100 µM.
For the molecule `O=C(O)/C=C/c1nc2ccccc2c(=O)o1`, the TGI in the assay with IGROV1 ovarian, in the assay on NCI-H226 lung, with NCI-H23 lung, in the assay on UO-31 renal, with SK-MEL-28 melanoma and in the assay with OVCAR-8 ovarian was above 100 µM throughout. In addition, the TGI in the assay on HCC-2998 colon, in the assay with RPMI-8226 leukemia and in the assay with HOP-92 NSCLC was above 100 µM each time.

The values are drawn from PubChem BioAssay (NCI).
